We go through 5 molecules from patent US4698340A, “Pyrimidine derivatives, processes for preparation thereof and composition containing the same” (Fujisawa Pharmaceutical Co., Ltd., priority 1984, dated 1987).

One assay deals with Mice Subjected to Anoxia. The experiment in a line: Effect on Survival Time of Mice Subjected to Anoxia (100% N2). Particulars: 30 min before anoxia, n = 10, **P < 0.01 vs control. Type of assay: in vivo, mouse (male ICR). The method, then: Effect on Survival Time of Mice Subjected to Anoxia (100% N2)
A pair of male ICR mice with the same age was maintained in a close glass chamber in which circulated a current of nitrogen gas, and measured survival time. One mouse was pretreated intraperitoneally with the test compound, and another with the vehicle 30 min before the experiment.
(§1) Test compounds were dissolved in saline.

In assay [1] the test system is Arachidonic Acid-Induced Cerebral Edema in Rat. The experiment in a line: Effect on Arachidonic Acid-Induced Cerebral Edema in Rat. Type of assay: in vivo, rat (male Wistar). Particulars: for Water content, Contralatelal hemisphere / Water content, Infarcted hemisphere: N = 6; for Water content, Infarcted hemisphere: **P < 0.01. The method, then:
Effect on Arachidonic Acid-Induced Cerebral Edema in Rat
Male wistar rats were anesthetized with ethyl ether. The right lingual and occipital arteries were ligated. Retrograde cannulation was performed at the bifurcation of the external and internal carotid arteries via the upper part of the right external artery. Arachidonic acid dissolved in 10% ethyl alcohol and 0.4% Na2 CO3 was injected into the internal carotid artery in a dose of 2 mg/0.2 ml/kg at a speed of 0.08 ml/min. Two hours after the injection of arachidonic acid, the animals were decapitated and water content in the infarcted and contralatelal hemisphere was measured. The test drug was administered intraperitoneally 30 min before the injection of arachidonic acid.
as §1

For a further assay, the system named is Rat Brain Mitochondria. Put plainly: Effect on Lipid Peroxide Production in Rat Brain Mitochondria (malondialdehyde, thiobarbituric acid method). Type of assay: biochemical, rat (male Wistar). The conditions noted are these: 1 hr at 37° C., 100 μM ascorbic acid, 20 μM FeSO4. The method, then: Effect on Lipid Peroxide Production in Rat Brain Mitochondria
Brain mitochondria from male Wistar rat was incubated with 100 μM ascorbic acid, 20 μM FeSO4 and test drug for 1 hr at 37° C. Malondialdehyde formed in the incubation mixture was measured by the thiobarbituric acid method according to Shimada et al (Biochem. Biophys. Acta, 489; 163-172. 1977)
Test compounds were dissolved in water

The mark [2] stands for this setting: 32 mg/kg i.p. 30 min before arachidonic acid, vehicle (1) 78.7 ± 0.4, (2), (3) 79.4 ± 0.2.
Where [3] appears, read: 32 mg/kg i.p. 30 min before arachidonic acid, vehicle (1) 81.9 ± 0.4, (2), (3) 81.5 ± 0.4.

Regarding `Cc1nc(-c2ccccc2)nc(-c2cccc([N+](=O)[O-])c2)c1C(=O)NCCN(C)C.O=C(O)/C=C/C(=O)O` [Example 32, N-(2-dimethylaminoethyl)-6-methyl-4-(3-nitrophenyl)-2-phenyl-5-pyrimidinecarboxamide fumarate], the Survival time with Mice Subjected to Anoxia (10 mg/kg intraperitoneally, control 30.5 ± 0.5) stood at 37.0 ± 1.5 s; with Mice Subjected to Anoxia (100 mg/kg intraperitoneally, control 39.0 ± 1.2), 50.0 s. For the same molecule, the “Water content, Contralatelal hemisphere” value is 79.0 ± 0.3% in assay [1] (10 mg/kg i.p. 30 min before arachidonic acid, vehicle 78.7 ± 0.4) and 79.3 ± 0.2% in assay [1] (setting [2]). Besides, the “Water content, Infarcted hemisphere” value is on record as 80.2 ± 0.1% in assay [1] (10 mg/kg i.p. 30 min before arachidonic acid, vehicle 81.9 ± 0.4) and 79.9 ± 0.1% in assay [1] (setting [3]).
On to `Cc1nc(-c2ccccc2)nc(-c2cccc([N+](=O)[O-])c2)c1C(=O)N1CCN(C)CC1` [Example 21, 6-methyl-5-(4-methylpiperazin-1-ylcarbonyl)-4-(3-nitrophenyl)-2-phenyl-pyrimidine], for which the “Water content, Contralatelal hemisphere” value in assay [1] (setting [2]) is listed as 78.6 ± 0.1%. Moreover, the “Water content, Infarcted hemisphere” value in assay [1] (setting [3]) turned out to be 79.7 ± 0.3%. In addition, in the assay on Rat Brain Mitochondria (at 10^-5 g/ml), the “Inhibition % (malondialdehyde formation)” value amounted to 72.8%.
On the same counts, the results for `Cc1nc(-c2ccccc2)nc(-c2cccc([N+](=O)[O-])c2)c1C(=O)NCCN1CCSCC1` [Example 36, 6-methyl-4-(3-nitrophenyl)-2-phenyl-N-[2-(4-thiomorpholino)ethyl]-5-pyrimidinecarboxamide] are 78.9 ± 0.1%, 79.5 ± 0.2% and 70.2%.
Regarding `COC(=O)c1c(C)nc(-c2ccccc2)nc1-c1cc([N+](=O)[O-])ccc1SC` [Example 26, methyl 6-methyl-4-(2-methylthio-5-nitrophenyl)-2-phenyl-5-pyrimidinecarboxylate], the “Inhibition % (malondialdehyde formation)” value in the assay on Rat Brain Mitochondria (at 10^-4 g/ml) is listed as 90.9%.
For `CCCCC/C=C\C/C=C\C/C=C\C/C=C\CCCC(=O)O` [Arachidonic acid, reference compound], the “water content of the ipsilatelal hemisphere after injection into internal carotid artery (in words)” value in assay [1] (2 mg/0.2 ml/kg, two hours after the injection) is given as “caused increase of water content”.
